{"source": "patent US6723531B2", "about": "“Method for modulating expression of exogenous genes in mammalian systems, and products related thereto” (The Salk Institute for Biological Studies, priority 1996, dated 2004)", "key": {"[1]": {"system": "ecdysone inducible promoter (CD3-VpEcR; CD3-RXR; ESHβ)", "assay": "Northern blot of receptor/reporter double transgenic mice", "assay_type": "in vivo", "settings": "10 mg intraperitoneal, RNA 48 hours after treatment, thymus", "protocol": "To produce transgenic mice, the following DNA constructs were prepared and subsequently injected into fertilized eggs: CD3-VpEcR, CD3-RXR, ESHβ (Lee et al., J. Exp. Med. 175:1013-1025 (1992)). Two separate lines of transgenic mice were generated harboring either an ecdysone inducible reporter, ESHβ, or a T-cell specific expression construct of VpEcR and RXR, respectively. The former are referred to as reporter mice, the latter are referred to as receptor mice, and double transgenic mice are referred to as receptor/reporter mice. Constructs CD3-VpEcR and CD3-RXR were mixed and coinjected, while ESHB was injected alone. Primary genotyping was performed by Southern blot analysis and the transmission of transgenic mice was monitored by dot blot analysis. Receptor mice were analyzed for VpEcR and RXR expression by Northern blot analysis of RNA collected from these mice. For Northern blot analysis, 15 μg of total RNA obtained from the thymus, and various tissues as a control, was run on a denaturing gel and blotted onto a nitrocellulose membrane. The blot was probed with a radiolabeled β-gal-specific probe and exposed on film for 2 days. These receptor mice were healthy, fertile, and appeared normal by visual inspection. In addition, the transgene was transferred to the offspring as expected by Mendelian genetics. […]"}, "pregnant mice": {"system": "pregnant mice", "assay": "Teratogenic study in pregnant mice", "assay_type": "in vivo", "settings": "20 mg in sesame oil, mother and pups observed three months"}, "adult mice": {"system": "adult mice", "assay": "Toxicity study in adult mice", "assay_type": "in vivo", "settings": "intraperitoneal, 20 mg in sesame oil, observed approximately two months", "protocol": "In order to use muristerone as a potential hormone in mice, its toxicity and bioavailability was examined. For toxicity studies, adult mice were injected intraperitonealy with 20 mg of muristerone A suspended in sesame oil. The mice were then observed for approximately two months. […] In addition to the inert qualities of muristerone (an ecdysone), overexpression of VpEcR and RXR appears not to be toxic."}, "[2]": {"system": "CV-1 cells transfected with CMX-GEcR, CMX-hRXRa, and EcREx5-DMTV-Luc", "assay": "Bioavailability study: serum of injected mice tested on transfected CV-1 cells", "assay_type": "in vivo", "protocol": "For muristerone bioavailability studies, adult mice were injected intraperitoneally with sesame oil with or without […] of muristerone, and were subsequently sacrificed for serum collection. After twelve hours, blood was drawn from the mice, and the serum was isolated by brief centrifugation of the whole blood. In order to conduct transfection assays to test for muristerone activity, serum from sesame oil injected mice was divided, and half was supplemented with muristerone to a final concentration of 10 μM. The three batches of mouse serum were diluted 1:10 in DMEM and placed onto CV-1 cells transfected with CMX-GEcR, CMX-hRXRa, and EcREx5-DMTV-Luc."}, "[3]": {"system": "N13 cells (293 cells with VpEcR, RXR and ecdysone inducible reporter)", "assay": "Kinetics of induction in N13 cells (luciferase activity)", "assay_type": "cell-based", "settings": "1 μM muristerone", "protocol": "(§1) N13 cells were grown with varying concentrations of muristerone for 36 hours and then assayed for β-galactosidase activity (open squares) by standard ONPG assay or for luciferase activity (closed circles). […] N13 cells were grown in separate wells in the presence of 1 μM muristerone, harvested at varying times, and assayed for luciferase activity as described in Example 3.\nFinally, the kinetics of muristerone mediated induction was measured. N13 cells were grown in separate wells in the presence of 1 μM muristerone, harvested at varying times, and assayed for luciferase activity. Inductions of 100-fold in 3 hrs., 1000 fold in 8 hrs., and maximal effects of 20,000 fold after 20 hours of treatment were observed (FIG. 3B)."}, "[4]": {"molecular_target": "T1, ecdysone receptor (EcR)/USP (Drosophila melanogaster, UniProt P34021)", "T1 construct": "expressed in transfected cells; host or cells: CV-1 cells", "T1 sequence (P34021 1-878)": "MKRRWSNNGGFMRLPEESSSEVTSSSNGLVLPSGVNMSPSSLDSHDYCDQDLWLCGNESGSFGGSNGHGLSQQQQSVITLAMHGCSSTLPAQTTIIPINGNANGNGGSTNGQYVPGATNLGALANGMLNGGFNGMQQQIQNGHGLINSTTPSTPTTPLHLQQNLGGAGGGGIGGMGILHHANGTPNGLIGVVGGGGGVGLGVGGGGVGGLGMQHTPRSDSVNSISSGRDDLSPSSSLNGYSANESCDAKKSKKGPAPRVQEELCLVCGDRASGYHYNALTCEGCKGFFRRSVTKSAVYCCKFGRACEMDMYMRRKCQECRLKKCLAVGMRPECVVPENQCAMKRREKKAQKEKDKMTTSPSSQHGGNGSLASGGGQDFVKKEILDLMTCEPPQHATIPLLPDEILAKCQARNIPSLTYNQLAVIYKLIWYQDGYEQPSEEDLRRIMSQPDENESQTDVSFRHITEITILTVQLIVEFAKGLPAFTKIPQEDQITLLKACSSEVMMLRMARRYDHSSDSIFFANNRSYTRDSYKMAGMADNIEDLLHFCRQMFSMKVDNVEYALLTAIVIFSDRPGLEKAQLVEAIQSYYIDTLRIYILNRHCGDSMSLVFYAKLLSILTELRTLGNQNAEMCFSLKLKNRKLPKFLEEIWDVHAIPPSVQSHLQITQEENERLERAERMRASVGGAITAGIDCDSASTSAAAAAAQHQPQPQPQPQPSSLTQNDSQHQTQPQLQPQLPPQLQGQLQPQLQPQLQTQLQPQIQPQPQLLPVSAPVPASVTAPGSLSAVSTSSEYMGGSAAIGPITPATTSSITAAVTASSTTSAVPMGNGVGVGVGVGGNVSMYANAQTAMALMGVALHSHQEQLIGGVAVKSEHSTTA", "T1 sequence (P20153 1-508 partner)": "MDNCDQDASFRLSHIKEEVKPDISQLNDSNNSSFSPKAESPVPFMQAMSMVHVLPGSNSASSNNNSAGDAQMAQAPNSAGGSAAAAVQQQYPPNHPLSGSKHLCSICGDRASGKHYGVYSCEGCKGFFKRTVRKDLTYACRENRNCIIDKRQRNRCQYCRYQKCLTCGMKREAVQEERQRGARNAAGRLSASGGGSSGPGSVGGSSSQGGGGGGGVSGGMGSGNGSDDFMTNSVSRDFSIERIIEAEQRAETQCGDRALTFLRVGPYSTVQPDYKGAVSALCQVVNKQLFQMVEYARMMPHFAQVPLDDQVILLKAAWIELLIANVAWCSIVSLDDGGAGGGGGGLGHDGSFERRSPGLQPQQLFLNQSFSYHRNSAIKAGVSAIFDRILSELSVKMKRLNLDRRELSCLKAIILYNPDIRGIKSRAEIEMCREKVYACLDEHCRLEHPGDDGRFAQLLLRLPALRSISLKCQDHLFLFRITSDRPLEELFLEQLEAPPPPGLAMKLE", "assay": "Transient transfection reporter assay in CV-1 cells, ecdysone receptor with USP", "assay_type": "cell-based", "settings": "1 μM muristerone A, unmodified ecdysone receptor", "protocol": "CV-1 cells were maintained in DMEM supplemented with 10%. Fetal Bovine Serum. Transient transfections were performed using DOTAP transfection reagent (Boehringer-Mannheim). Transfections using β-galactosidase as the reporter were assayed either by Galactolight luminescent assay (Tropix, Bedford, Mass.) or by standard liquid ONPG assay (Sigma, St. Louis, Mo.). The values were normalized by co-transfection of CMX-luciferase. Transfections using luciferase as the reporter were assayed by standard techniques using luciferin and ATP. These values were normalized by co-transfection of CMX-β-galactosidase. Hormone treated cells were treated with ethanol, 50 μM Juvenile Hormone III (Sigma), 1 μM muristerone A (Zambon, Bresso, IT), or 1 μM dexamethasone (Sigma) unless otherwise noted.\nTo maximize the sensitivity of the invention ecdysone inducible system, modifications of the ecdysone receptor were made. The N-terminal transactivation domain of the ecdysone receptor was replaced by the corresponding domain of the glucocorticoid receptor (GR), resulting in the modified ecdysone receptor GEcR (See FIG. 1D). CV-1 cells were transfected with the plasmid CMX-GEcR encoding the modified ecdysone receptor as discussed above. […]"}, "[5]": {"system": "N13 cells (293 cells with VpEcR, RXR and ecdysone inducible reporter)", "assay": "Dose-response assay in N13 cells (β-galactosidase and luciferase reporters)", "assay_type": "cell-based", "settings": "36 hours", "protocol": "as §1\nFIG. 5 compares the dose-dependent activation of N13 cells with muristerone (X) and ponasterone A (open circles).\nA dose-response assay was conducted by growing N13 cells with varying concentrations of muristerone for 36 hours and then assaying for β-galactosidase activity (using the well-known ONPG assay), or the cells were assayed for luciferase activity. […] One-hundred fold induction was achieved by muristerone concentrations as low as 100 nM (FIG. 3A).\nA dose-response assay was conducted as described in Example 3, by growing N13 cells with varying concentrations of muristerone or ponasterone A for 36 hours and then assaying for β-galactosidase activity (using the well-known ONPG assay), or the cells were assayed for luciferase activity."}, "[6]": {"system": "N13 cells (293 cells with VpEcR, RXR and ecdysone inducible reporter)", "assay": "X-gal staining of stable cell line N13", "assay_type": "cell-based", "settings": "24 hours of treatment with 1 μM muristerone; 3 hours of staining", "protocol": "Stable cell lines were generated containing the modified ecdysone receptor VpEcR, a heterodimeric partner (RXR), and an ecdysone inducible reporter (FIG. 2). 293 cells were transfected with the following linearized plasmids, pRC-ESHβ, EcREx5-ΔMTV-Luc, CMX-VpEcR, and CMX-hRXRa. The following day, the cells were split 1:10 and were allowed to recover one day prior to selection with 1 mg/ml G418 (GIBCO). After 14 days of selection, 14 individual clones were isolated and grown separately in the presence of 0.5 mg/ml G418.\nOne of these cell lines, N13, was grown in the presence or absence of 1 μM muristerone for 20 hours. Cell lysates were then assayed for β-galactosidase and luciferase activities as described in Example 1. X-gal staining was performed on the stable cell lines. Cells were fixed briefly with 10% formaldehyde in PBS and then stained with X-Gal (Molecular Probes, Eugene, Oreg.) for 2 to 6 hours. After 24 hours of treatment with 1 μM muristerone, 100% of the cells turned dark blue after 3 hours of staining. Thus, mammalian cells containing the modified ecdysone receptor VpEcR, a heterodimeric partner (RXR), and a reporter gene construct regulated by a modified ecdysone response element, function to efficiently express an exogenous gene in response to a ligand, e.g., ecdysone."}}, "note": "Entries after “also recorded” stand apart in the source; their conditions may differ."}
{"smiles": "CC(C)CC[C@@H](O)[C@](C)(O)[C@H]1CC[C@@]2(O)C3=CC(=O)[C@]4(O)C[C@@H](O)[C@@H](O)C[C@]4(C)[C@H]3[C@H](O)C[C@]12C", "note": "[muristerone A]", "values": [{"measurement": "induction from an ecdysone inducible promoter (Northern blot)", "setting": "[1]", "value": "significant induction"}, {"measurement": "teratogenicity", "setting": "pregnant mice", "value": "neither toxic, teratogenic"}, {"measurement": "toxicity", "setting": "adult mice", "value": "neither toxic"}, {"measurement": "luciferase activity of serum from treated mice", "setting": "[2]; intraperitoneal 10 μmg in sesame oil, serum after twelve hours, diluted 1:10 in DMEM", "value": "comparable to that seen from untreated mouse serum supplemented with 1 μM muristerone"}, {"measurement": "activity when injected into mice", "setting": "[2]; mice, intraperitoneal", "value": "maintains its activity"}, {"measurement": "inactivation or blunting of activity by serum proteins", "setting": "[2]; mouse serum", "value": "nor inactivated by serum binding proteins; also recorded: little or no blunting of activity"}, {"measurement": "induction of luciferase activity", "setting": "[3]; 3 hrs", "value": 100, "unit": "fold"}, {"measurement": "induction of luciferase activity", "setting": "[3]; 8 hrs", "value": 1000, "unit": "fold"}, {"measurement": "maximal induction of luciferase activity", "setting": "[3]; after 20 hours of treatment", "value": "20,000 fold"}, {"measurement": "muristerone responsiveness (fold induction)", "setting": "[4]", "value": 3, "unit": "fold"}, {"measurement": "fold induction", "setting": "[5]; concentrations as low as 100 nM", "value": "One-hundred"}, {"measurement": "inducibility of β-galactosidase and luciferase reporters", "setting": "[5]; final concentration 10 μM", "value": "~3 orders of magnitude"}, {"measurement": "cells turned dark blue (X-gal staining)", "setting": "[6]", "value": 100, "unit": "%"}]}
